Paper PMC13198257, “An aerosolized dual-action autotaxin inhibitor-PPARγ agonist for the treatment of pulmonary fibrosis” (Cell Reports Medicine, 2026)

Test system: lung gene expression
Assay: RNA sequencing of lung tissue (BLM/EL244 vs BLM)
Type: in vivo, mouse
Protocol: RNA quality was assessed using an Agilent TapeStation 4150 with the High Sensitivity […] ScreenTape (Agilent), according to the manufacturer’s protocols. For library preparation, the QuantSeq 3’mRNA-Seq Library Prep Kit (Lexogen) was used according to manufacturer’s instructions. Briefly, 500 ng of RNA from each sample was used for first-strand synthesis, followed by RNA template removal, and second-strand synthesis initiated by random primers. In-line barcodes were introduced at this step, and this was followed by magnetic bead-based purification. The resulting libraries were amplified for 15 cycles and re-purified, with quantity and quality assessed on a Qubit 4 Fluorometer with the Invitrogen Qubit dsDNA HS Assay and an Agilent Tapestation 4150 with the High Sensitivity D1000 assay kit, respectively. The quantified libraries were pooled equimolarly; 50ng of total library mix was used for Adapter Conversion PCR Amplification using the Universal Library Conversion Kit (App-A), Version: V1.0 (MGI Tech Co., Ltd.), according to the manufacturer’s instructions.
The quantity and quality of the purified adapter conversion PCR (AC-PCR) product were evaluated on a Qubit 4 Fluorometer with the Invitrogen Qubit dsDNA HS Assay and on an Agilent Tapestation 4150 with the High Sensitivity D1000 assay kit, respectively. This was followed by DNA denaturation, Single-Strand Circularisation, Enzymatic Digestion, Enzymatic Digestion Product Cleanup and Quality Control steps on 1 pmol of AC-PCR product, according to the Universal Library Conversion Kit (App-A) User Manual (Version: A3).
Finally, 60 fmol of ssCirDNA were used for DNB preparation and sequencing on a DNBSEQ-G400 platform at the BSRC Alexander Fleming Genomics Facility, using a G400 App-A FCS SE100 High-throughput Sequencing Set (MGI Tech Co., Ltd.), according to the manufacturer’s instructions.
Alignment of the FASTQ files was performed against the mouse genome build mm10 using a custom Bash script.[143] Read counting on the 3′ UTRs and differential expression analysis were conducted using the metaseqR2 bioconductor package.[144] Genes corresponding to the following biotypes were excluded: polymorphic_pseudogene, processed_transcript, pseudogene, IG_V_pseudogene, misc_RNA, IG_C_gene, IG_J_gene, IG_D_gene, IG_LV_gene, TR_V_gene, TR_V_pseudogene, TEC, and processed_pseudogene. Gene counts were normalized with DESEQ[145] through metaseqR2. Genes with more than 10 counts in at least 50% of the samples were kept for further processing. For differential expression analysis, the PANDORA algorithm[146] was used to estimate a meta p-value integrating the results from the DESEQ, DESEQ2,[147] edgeR,[148] limma,[149] NBPSeq,[150] and NOISeq[151] algorithms. All additional parameters were set to default values.
Pathway enrichment analysis was performed for the Gene Ontology Biological process (BP) and Molecular Function (MF) terms through GeneCodis 4.[152] The volcano plots, scatterplots, Venn diagrams, and dot plots were generated using the ggplot2 Bioconductor package.

## O=C1NC(=O)C(Cc2ccc(OCCC3CCN(C(=O)OCc4cc(Cl)cc(Cl)c4)CC3)cc2)S1 (stereo not drawn) [EL244, 3,5-dichlorobenzyl 4-(2-(4-((2,4-dioxothiazolidin-5-yl)methyl)phenoxy)ethyl)piperidine-1-carboxylate]
DEG Igfbp3, nFC: normalised fold change
  Igfbp3 log2 nFC BLM/EL244 vs BLM: 1.75
DEG Igfbp6, nFC: normalised fold change
  Igfbp6 log2 nFC BLM/EL244 vs BLM: 1.68
DEG Il6ra, nFC: normalised fold change
  Il6ra log2 nFC BLM/EL244 vs BLM: 0.84
DEG Ildr2
  log2 nFC BLM/EL244 vs BLM: -1.32
DEG Inmt, nFC: normalised fold change
  Inmt log2 nFC BLM/EL244 vs BLM: 1.34
DEG Iqca, nFC: normalised fold change
  Iqca log2 nFC BLM/EL244 vs BLM: 0.87
DEG Iqgap3
  log2 nFC BLM/EL244 vs BLM: -2.41
DEG Itga2b, nFC: normalised fold change
  Itga2b log2 nFC BLM/EL244 vs BLM: 1.10
DEG Itga8, nFC: normalised fold change
  Itga8 log2 nFC BLM/EL244 vs BLM: 0.88
DEG Itm2a
  log2 nFC BLM/EL244 vs BLM: -1.25
DEG Jdp2, nFC: normalised fold change
  Jdp2 log2 nFC BLM/EL244 vs BLM: 0.71
DEG Kcne2, nFC: normalised fold change
  Kcne2 log2 nFC BLM/EL244 vs BLM: 1.32
DEG Kcnn4
  log2 nFC BLM/EL244 vs BLM: -1.27
DEG Kdelr3
  log2 nFC BLM/EL244 vs BLM: -1.25
DEG Kif14
  log2 nFC BLM/EL244 vs BLM: -1.56
DEG Kif20a
  log2 nFC BLM/EL244 vs BLM: -2.52
DEG Klf3, nFC: normalised fold change
  Klf3 log2 nFC BLM/EL244 vs BLM: 0.69
DEG Klf4, nFC: normalised fold change
  Klf4 log2 nFC BLM/EL244 vs BLM: 0.72
DEG Klf9, nFC: normalised fold change
  Klf9 log2 nFC BLM/EL244 vs BLM: 0.85
DEG Klf15, nFC: normalised fold change
  Klf15 log2 nFC BLM/EL244 vs BLM: 1.42
DEG Klrc1, nFC: normalised fold change
  Klrc1 log2 nFC BLM/EL244 vs BLM: 1.38
DEG Kndc1, nFC: normalised fold change
  Kndc1 log2 nFC BLM/EL244 vs BLM: 1.05
DEG Knstrn
  log2 nFC BLM/EL244 vs BLM: -2.52
DEG Kntc1
  log2 nFC BLM/EL244 vs BLM: -1.39
DEG Krt79, nFC: normalised fold change
  Krt79 log2 nFC BLM/EL244 vs BLM: 1.75
DEG Lama1
  log2 nFC BLM/EL244 vs BLM: -2.43
DEG Ldb3, nFC: normalised fold change
  Ldb3 log2 nFC BLM/EL244 vs BLM: 1.52
DEG Lncpint, nFC: normalised fold change
  Lncpint log2 nFC BLM/EL244 vs BLM: 1.06
DEG Lrat, nFC: normalised fold change
  Lrat log2 nFC BLM/EL244 vs BLM: 1.15
DEG Lrrc74b, nFC: normalised fold change
  Lrrc74b log2 nFC BLM/EL244 vs BLM: 1.02
DEG Ltbp2
  log2 nFC BLM/EL244 vs BLM: -1.44
DEG Ltbp4, nFC: normalised fold change
  Ltbp4 log2 nFC BLM/EL244 vs BLM: 0.81
DEG Lum
  log2 nFC BLM/EL244 vs BLM: -1.32
DEG Lyve1, nFC: normalised fold change
  Lyve1 log2 nFC BLM/EL244 vs BLM: 0.96
DEG Map3k6, nFC: normalised fold change
  Map3k6 log2 nFC BLM/EL244 vs BLM: 0.95
DEG Mapt, nFC: normalised fold change
  Mapt log2 nFC BLM/EL244 vs BLM: 0.89
DEG Mark1
  log2 nFC BLM/EL244 vs BLM: -1.23
DEG Matk
  log2 nFC BLM/EL244 vs BLM: -1.42
DEG Mb, nFC: normalised fold change
  Mb log2 nFC BLM/EL244 vs BLM: 2.27
DEG Mcf2l, nFC: normalised fold change
  Mcf2l log2 nFC BLM/EL244 vs BLM: 0.95
DEG Mcm5
  log2 nFC BLM/EL244 vs BLM: -1.33
DEG Mdk
  log2 nFC BLM/EL244 vs BLM: -1.34
DEG Mettl7a1, nFC: normalised fold change
  Mettl7a1 log2 nFC BLM/EL244 vs BLM: 0.80
DEG Mir29c, nFC: normalised fold change
  Mir29c log2 nFC BLM/EL244 vs BLM: 0.89
DEG Mir147
  log2 nFC BLM/EL244 vs BLM: -1.44
DEG Mir6899, nFC: normalised fold change
  Mir6899 log2 nFC BLM/EL244 vs BLM: 0.84
DEG Mir6979, nFC: normalised fold change
  Mir6979 log2 nFC BLM/EL244 vs BLM: 1.18
DEG Mis18bp1
  log2 nFC BLM/EL244 vs BLM: -1.46
DEG Mmp9, nFC: normalised fold change
  Mmp9 log2 nFC BLM/EL244 vs BLM: 1.20
DEG Mmp12
  log2 nFC BLM/EL244 vs BLM: -2.48
DEG Mmp14
  log2 nFC BLM/EL244 vs BLM: -1.31
DEG Mpp3, nFC: normalised fold change
  Mpp3 log2 nFC BLM/EL244 vs BLM: 1.65
DEG Ms4a7
  log2 nFC BLM/EL244 vs BLM: -1.49
DEG Ms4a4d, nFC: normalised fold change
  Ms4a4d log2 nFC BLM/EL244 vs BLM: 1.15
DEG Msr1
  log2 nFC BLM/EL244 vs BLM: -1.44
DEG Mybpc3, nFC: normalised fold change
  Mybpc3 log2 nFC BLM/EL244 vs BLM: 2.06
DEG Mybphl, nFC: normalised fold change
  Mybphl log2 nFC BLM/EL244 vs BLM: 2.33
